The source of these data is article PMC6033896, “Discovery of Mcl-1 inhibitors from integrated high throughput and virtual screening” (Scientific Reports, 2018).

“And” between values parts separate entries of the source, which are not always exact repeats. Equal entries are not always repeated.

Assay [1] addresses T1, Mcl-1 protein (Homo sapiens, UniProt Q07820).
T1 construct: human Mcl-1 (residues 171–323); His tag (pHis-TEV vector) (N, cleaved yes); made in house; host or cells: E. coli BL21 (DE3)
Put plainly: FP-based competitive binding assay with fluorescent labelled Bid BH3 peptide. As to conditions: for Ki: calculated from FP IC50; for IC50: competition with fluorescent Bid probe 2 nM, 20 nM Mcl-1 for purchased compounds, 10 nM for synthesized library. The procedure:
(§1) FP-based binding assays were developed and optimized to determine the binding affinities of inhibitors to the recombinant Mcl-1, Bcl-2, Bcl-xL, and Bfl-1, proteins. […] The fluorescent Bid probe was fixed at 2 nM for all assays, except for Bfl-1, where 1 nM was used. 5 μL of the tested compound in DMSO and 120 μL of protein/probe complex in the assay buffer were added to assay plates (Corning #3792), incubated at room temperature for 3 h, and the polarization values (mP) were measured at an excitation wavelength of 485 nm and an emission wavelength of 530 nm using the plate reader Synergy H1 Hybrid, BioTek. IC50 values were determined by nonlinear regression fitting of the competition curves (GraphPad Prism 6.0 Software). The Ki values were calculated as described previously.
(§2) 1. List of compounds purchased from vendors
(§3) Compound s 5, 6, 7, 8 and S3, S4, S5, S6 S7, S8, S9, S10, S17 were purchased from […]
(§4) Compound s 9, 10, 11 and S11, S12, S13 were purchased from I nterbioscreen […]
His-tagged proteins containing human Mcl-1 (residues 171–323), the isoform 2 construct of the human Bcl-2 [Bcl2-2 construct for protein production starts with the Bcl2 sequence of 1-34 a a, followed by the Bcl-xL seq uence of 35-50 aa, and ends with the Bcl-2 sequenc e of 92-202aa.], Bcl-xL (Human Bcl-xL protein, which has an internal deletion for the 45 -85 amino acid residues and a C -terminal truncation for the amino acid residues 212-233), and Bf l-1 (residues 1-151), were expres sed from the pHis -TEV vector (a modified pET vector) in E. coli BL21 (DE3) cells. Cells were grown at 37 °C in 2×YT containing antibiotics to an OD600 density of 1.5, 1 and 0.8 for Mcl-1, Bcl-xL and Bcl-2 respectively. Protein expression wa s induced by 0 .4 mM IPTG at 20 °C overnight for all proteins except for Bf l-1 which was e xpressed at 3 7 °C for four hours . Cells were lysed in 20 mM HEPES pH 7.5, 200 mM NaCl, 0.1% βME with Leupeptin/Aprotinin (Mcl-1), 25mM Tris pH 8.5, 200mM NaCl (Bcl-2), 50mM Tris pH 7.5, 200 mM NaCl (Bcl-xL) and 50 mM Tris pH 8, 500 mM NaCl, 0. 1% βME with Leupeptin/Aprotinin (Bf l-1). All […]
proteins were purified from the soluble fraction using Ni-NTA resin (QIAGEN), following the manufacturer’s instructions. For purification of TEV-cleaved protein, the amino-terminal His tag was cleaved by incubation with TEV protease and the protein was further purified by anion exchange (Source Q) and gel filtration chromatography (Superdex 75, Amersham Biosciences) in 20mM HEPES pH 7.0, 50 mM NaCl (Mcl-1), […]
NaCl, 0.1% βME (Bcl-xL) and 25 mM Tris pH 7.5, 150 mM NaCl, 25% Glycerol, 0.1% βME ( Bf l-1). His-tagged Mcl-1 protein was used for TR-FRET assay and HSQC-NMR.
His-TEV cleaved Mcl-1, Bcl-2, Bcl-xL, and Bf l-1 were used in fluorescent polarization and surface plasmon resonance binding assays.
Mutant Mcl-1 protein wa s prepared by the QuikChange site -directed mutagenesi s method (Stratagene) , where Arg263 was mutated to Ala. The R263A expression pla smid was transformed into Rosetta2 DE3 cells and purified by the same method as the wildtype protein. Cultures were grown to an OD 600 of 1. 5 at 37 °C in Terrific Broth, induced with 0. 4 mM IPTG, and express ed overnight at 20 °C. The follow-up purification was performed the same way as was for Mcl-1 wild-type recombinant

The target of assay [2] is T1, Mcl-1 protein. Kind of assay: SPR-based solution competitive binding assay, immobilized biotin-labelled Bim BH3 peptide. Particulars: Mcl-1 20 nM; competition with immobilized Bim BH3 peptide. The procedure:
The solution competitive SPR-based assay was performed on Biacore 2000 in a similar way as was already reported. Briefly, N terminal biotin-labelled Bim BH3 peptide (141–166 amino acids) was immobilized on streptavidin (SA) chip giving a density of 800 RU (Response Units). The pre-incubated Mcl-1 protein (20 nM) with tested small-molecule inhibitors for at least 30 min was injected over the surfaces of the chip using assay buffer HBS-P (GE, #BR100368). Response units were measured at 15 s in the dissociation phase, and IC50 values were determined by nonlinear least-squares analysis using GraphPad Prism 6.0 software.

Assay [3] addresses T1, Mcl-1 protein. Kind of assay: TR-FRET binding assay with Bid-Dy647 peptide. Particulars: 10 nM Mcl-1, 10 nM Bid-Dy647. The protocol: TR-FRET was performed using black 384-well plates in an Envision Multilabel plate reader (Perkin Elmer Life Sciences). To each well, a mixture of 10 nM Bid-Dy647 peptide (79–99), 10 nM Mcl-1 protein, and Europium-anti-His antibody were added to a final volume of 25 μl in the assay buffer (20 mM potassium phosphate, pH 7.5; 50 mM NaCl, 1 mM EDTA and 0.05% Pluronic F68). The TR-FRET signals were measured with an Envision Multilabel plate reader after 2 h of incubation. (Ex 340 nm, Em615 nm and Em665 nm) and expressed as FRET signal ratio (F665 nm/[…] * 104)
In general terms: TR-FRET usually uses a lanthanide donor and a delayed reading to cut background.

The target of assay [4] is T2, Bcl-2 (Homo sapiens, UniProt P10415, DEL35-91/INS34DVEENRTEAPEGTESE).
T2 construct: His tag (pHis-TEV vector) (N, cleaved yes); made in house; host or cells: E. coli BL21 (DE3)
Put plainly: FP-based competitive binding assay with FAM-Bid. Particulars: FP. The procedure:
as §1, §2, §3, §4
(§5) His-tagged proteins containing human Mcl-1 (residues 171–323), the isoform 2 construct of the human Bcl-2 [Bcl2-2 construct for protein production starts with the Bcl2 sequence of 1-34 a a, followed by the Bcl-xL seq uence of 35-50 aa, and ends with the Bcl-2 sequenc e of 92-202aa.], Bcl-xL (Human Bcl-xL protein, which has an internal deletion for the 45 -85 amino acid residues and a C -terminal truncation for the amino acid residues 212-233), and Bf l-1 (residues 1-151), were expres sed from the pHis -TEV vector (a modified pET vector) in E. coli BL21 (DE3) cells. Cells were grown at 37 °C in 2×YT containing antibiotics to an OD600 density of 1.5, 1 and 0.8 for Mcl-1, Bcl-xL and Bcl-2 respectively. Protein expression wa s induced by 0 .4 mM IPTG at 20 °C overnight for all proteins except for Bf l-1 which was e xpressed at 3 7 °C for four hours . Cells were lysed in 20 mM HEPES pH 7.5, 200 mM NaCl, 0.1% βME with Leupeptin/Aprotinin (Mcl-1), 25mM Tris pH 8.5, 200mM NaCl (Bcl-2), 50mM Tris pH 7.5, 200 mM NaCl (Bcl-xL) and 50 mM Tris pH 8, 500 mM NaCl, 0. 1% βME with Leupeptin/Aprotinin (Bf l-1). All

Assay [5] concerns the target T3, Bcl-xL (Homo sapiens, UniProt Q07817, DEL45-85).
T3 construct: His tag (pHis-TEV vector) (N, cleaved yes); made in house; host or cells: E. coli BL21 (DE3)
Kind of assay: FP-based competitive binding assay with FAM-Bid. Particulars: FP. The procedure: as §1, §2, §3, §4, §5

In assay [6] the target is T4, Bfl-1 (Homo sapiens, UniProt Q16548).
T4 construct: Bf l-1 (residues 1-151); His tag (pHis-TEV vector) (N, cleaved yes); made in house; host or cells: E. coli BL21 (DE3)
T4 sequence (Q16548 1-151): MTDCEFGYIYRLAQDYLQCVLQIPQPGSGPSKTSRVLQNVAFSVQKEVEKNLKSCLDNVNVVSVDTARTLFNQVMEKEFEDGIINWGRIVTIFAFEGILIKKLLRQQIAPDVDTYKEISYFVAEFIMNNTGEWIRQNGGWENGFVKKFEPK
Kind of assay: FP-based competitive binding assay with FAM-Bid. The protocol: as §1, §2, §3, §4, §5

T1 sequence (Q07820 171-323): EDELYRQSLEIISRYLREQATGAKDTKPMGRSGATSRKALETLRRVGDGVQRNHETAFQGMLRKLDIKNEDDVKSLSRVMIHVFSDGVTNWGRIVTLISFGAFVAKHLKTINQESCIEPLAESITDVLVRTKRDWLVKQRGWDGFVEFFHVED
T3 sequence (Q07817 with tags, fused parts or gaps DEL45-85 limits assumed): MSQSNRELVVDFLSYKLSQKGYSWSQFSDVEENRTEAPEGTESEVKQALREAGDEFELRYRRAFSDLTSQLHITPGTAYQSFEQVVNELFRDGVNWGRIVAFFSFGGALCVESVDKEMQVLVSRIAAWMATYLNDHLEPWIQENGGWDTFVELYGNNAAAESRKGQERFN
T2 sequence (P10415 with tags, fused parts or gaps INS34DVEEN/V35R/G36T/A37E/P40E/DEL42-87/P88T/V89E/P90S/P91E): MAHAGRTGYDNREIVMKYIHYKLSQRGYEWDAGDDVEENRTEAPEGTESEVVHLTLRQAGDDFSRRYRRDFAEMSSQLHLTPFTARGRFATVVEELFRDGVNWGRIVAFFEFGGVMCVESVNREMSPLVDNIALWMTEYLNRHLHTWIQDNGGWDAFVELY

On to `O=C(CSc1nnc(-c2ccco2)c(-c2ccco2)n1)Nc1ccccc1-c1ccccc1` [Compound 41], for which, in assay [1], the Ki is 1 ± 0.1 µM. Moreover, the IC50 in assay [1] was determined as 4.4 ± 0.5 µM; in assay [2], 1.9 ± 0.7 µM; in assay [3], 12.7 ± 4.5 µM.
For `O=C(CSc1nnc(-c2ccco2)c(-c2ccco2)n1)Nc1cccc(-c2ccccc2)c1` [Compound 40] the same measures were 1 ± 0.4 µM, 4.1 ± 1.5 µM, 7.3 ± 2.1 µM and 7.9 ± 4.7 µM.
For the compound `O=C(CSc1nnc(-c2ccco2)c(-c2ccco2)n1)Nc1ccc(-c2ccccc2)cc1` [Compound 35], the Ki in assay [1] was 0.6 ± 0.1 µM. Also, the IC50 came out at 2.5 ± 0.1 µM in assay [1], 5.1 ± 2.3 µM in assay [2] and 5 ± 2.7 µM in assay [3].
In the case of `c1ccc(CCSc2nnc(-c3ccco3)c(-c3ccco3)n2)cc1` [Compound 43], in assay [1], the Ki was 0.5 ± 0.1 µM and the half-maximal inhibitory concentration (IC50) came to 2.2 ± 0.2 µM. For the same compound, the IC50 in assay [3] worked out at 5.2 ± 0.1 µM.
As for `O=C(CSc1nnc(-c2ccccn2)c(-c2ccccn2)n1)Nc1ccccc1` [Compound 27], in assay [1], the Ki was greater than 12.5 µM and the IC50 was greater than 50 µM. The IC50 in assay [2] was greater than 100 µM.
`CN(C)c1ccc(NC(=O)CSc2nnc(-c3ccco3)c(-c3ccco3)n2)cc1` [Compound 32]: the Ki in assay [1] is greater than 25 µM. The IC50 is greater than 100 µM in assay [1], greater than 100 µM in assay [2] and greater than 80 µM in assay [3].
For the compound `O=C(CSc1nnc(-c2ccccc2)c(-c2ccccc2)n1)Nc1ccccc1` [Compound 26], the Ki in assay [1] was greater than 5 µM. Moreover, the IC50 was greater than 20 µM in assay [1] and greater than 100 µM in assay [2].
As to `c1ccc(CCCSc2nnc(-c3ccco3)c(-c3ccco3)n2)cc1` [Compound 42], the Ki was 0.4 ± 0.1 µM in assay [1], greater than 25 µM in assay [4], greater than 20 µM in assay [5] and 1.6 ± 0.1 µM in assay [6] (FP). Also, the 50% inhibitory concentration (IC50) was 1.5 ± 0.3 µM in assay [1]; 2.4 ± 0.1 µM in assay [3]; greater than 100 µM in assay [4]; greater than 100 µM in assay [5]; 11.4 ± 0.1 µM in assay [6] (Bfl-1).
Take `COc1ccc(NC(=O)CSc2nnc(-c3ccco3)c(-c3ccco3)n2)cc1` [Compound 30]: in assay [1], the Ki was 7.8 ± 1.8 µM; the 50% inhibitory concentration (IC50) is 33 µM and 33.1 µM. Further, the IC50 in assay [2] is 47.4 ± 3.9 µM.
Regarding `O=C(CSc1nnc(-c2ccco2)c(-c2ccco2)n1)Nc1ccc(F)cc1` [Compound 34], the inhibition constant Ki in assay [1] was 1.9 ± 0.2 µM. The IC50 is 8.1 ± 0.8 µM in assay [1], 12.5 ± 1.7 µM in assay [2] and 11.6 ± 4 µM in assay [3].
Consider `Cc1ccc(NC(=O)c2ccc3nc(-c4ccco4)c(-c4ccco4)nc3c2)cc1` [Compound 46], for which, in assay [1], the Ki was 15.8 ± 2.3 µM and the IC50 amounted to 67.1 ± 9.1 µM.
Regarding `CCc1ccc(NC(=O)CSc2nnc(-c3ccco3)c(-c3ccco3)n2)cc1` [Compound 28], the inhibition constant (Ki) in assay [1] was 1.2 ± 0.1 µM. Besides, the concentration for half-maximal inhibition (IC50) in assay [1] worked out at 5 ± 0.3 µM; in assay [2], 14.3 ± 2 µM; in assay [3], 5.5 ± 1.8 µM.
For `Nc1ccc(NC(=O)CSc2nnc(-c3ccco3)c(-c3ccco3)n2)cc1` [Compound 33], in assay [1], the Ki is greater than 25 µM and the half-inhibitory concentration (IC50) was greater than 100 µM. In assay [2], this compound displayed an IC50 greater than 100 µM.
For `O=C(Nc1ccccc1)c1ccc2nc(-c3ccco3)c(-c3ccco3)nc2c1` [Compound 45], in assay [1], the Ki is greater than 12.5 µM and the IC50 was greater than 50 µM.
Take `CCc1cccc(NC(=O)CSc2nnc(-c3ccco3)c(-c3ccco3)n2)c1` [Compound 37]: in assay [1], the Ki was 1.2 ± 0.1 µM and the IC50 turned out to be 5.3 ± 0.5 µM.
Turning to `O=C(CSc1nnc(-c2cccs2)c(-c2cccs2)n1)Nc1ccccc1` [Compound 25], in assay [1], the Ki is greater than 25 µM. The IC50 in assay [1], in assay [2] and in assay [3] was greater than 100 µM in each case.
As to `O=C(CSc1nnc(-c2ccco2)c(-c2ccco2)n1)Nc1ccc(Oc2ccccc2)cc1` [Compound 31], in assay [1], the Ki is 1.6 ± 0.4 µM and the IC50 was determined as 6.9 ± 1.9 µM. In assay [3], this compound returned a half-inhibitory concentration (IC50) of 9 ± 3.8 µM.
Regarding `O=C(CSc1nnc(-c2ccco2)c(-c2ccco2)n1)Nc1ccc(Cc2ccccc2)cc1` [Compound 36], the Ki in assay [1] is 0.6 ± 0.1 µM. Further, the IC50 in assay [1] was 2.5 ± 0.6 µM; in assay [2], 4.2 ± 0.4 µM; in assay [3] it was 5.1 ± 1.5 µM.

What is called Ki is the equilibrium dissociation constant of an inhibitor or competing ligand from its target. What is called IC50 is the concentration that gives 50% inhibition.
